Data taken from ChEMBL document CHEMBL3132769, “Fragment growing to retain or alter the selectivity of anchored kinase hinge-binding fragments” (Medchemcomm, 2014).

Columns and labels:
[1] = molecular target: T1, Protein kinase C zeta type (Homo sapiens) (UniProt Q05513); experiment: Inhibition of human full length PKC zeta expressed in baculovirus assessed as substrate phosphorylation using fluorescence-labelled peptides as substrate at 0.06 uM after 90 mins by microfluidic peptide phosphorylation assay
T1 sequence (whole entry): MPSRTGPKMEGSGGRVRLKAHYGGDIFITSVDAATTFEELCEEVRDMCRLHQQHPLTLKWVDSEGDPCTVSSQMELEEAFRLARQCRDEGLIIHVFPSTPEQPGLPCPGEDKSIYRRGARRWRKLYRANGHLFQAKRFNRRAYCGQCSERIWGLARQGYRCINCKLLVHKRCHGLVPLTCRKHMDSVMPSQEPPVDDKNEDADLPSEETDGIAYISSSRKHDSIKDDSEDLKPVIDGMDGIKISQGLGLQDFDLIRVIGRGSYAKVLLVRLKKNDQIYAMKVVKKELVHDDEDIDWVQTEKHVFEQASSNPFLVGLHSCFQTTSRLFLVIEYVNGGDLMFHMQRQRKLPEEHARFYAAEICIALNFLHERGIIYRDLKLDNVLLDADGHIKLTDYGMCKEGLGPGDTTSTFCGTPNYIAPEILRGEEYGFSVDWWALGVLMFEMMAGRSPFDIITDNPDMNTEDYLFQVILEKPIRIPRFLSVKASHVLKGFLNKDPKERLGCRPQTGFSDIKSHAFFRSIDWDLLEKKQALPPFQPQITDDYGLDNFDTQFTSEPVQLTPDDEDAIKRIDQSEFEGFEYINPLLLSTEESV

[2] = molecular target: Tyrosine-protein kinase ABL1 (Homo sapiens) (UniProt P00519); experiment: Inhibition of human full-length ABL expressed in baculovirus assessed as substrate phosphorylation using fluorescence-labelled peptides as substrate at 0.06 uM after 90 mins by microfluidic peptide phosphorylation assay
[3] = molecular target: T2, Serine/threonine-protein kinase Chk1 (Homo sapiens) (UniProt O14757); experiment: Inhibition of human full length CHK1 expressed in baculovirus assessed as substrate phosphorylation using fluorescence-labelled peptides as substrate at 70 uM after 90 mins by microfluidic peptide phosphorylation assay
T2 sequence (whole entry): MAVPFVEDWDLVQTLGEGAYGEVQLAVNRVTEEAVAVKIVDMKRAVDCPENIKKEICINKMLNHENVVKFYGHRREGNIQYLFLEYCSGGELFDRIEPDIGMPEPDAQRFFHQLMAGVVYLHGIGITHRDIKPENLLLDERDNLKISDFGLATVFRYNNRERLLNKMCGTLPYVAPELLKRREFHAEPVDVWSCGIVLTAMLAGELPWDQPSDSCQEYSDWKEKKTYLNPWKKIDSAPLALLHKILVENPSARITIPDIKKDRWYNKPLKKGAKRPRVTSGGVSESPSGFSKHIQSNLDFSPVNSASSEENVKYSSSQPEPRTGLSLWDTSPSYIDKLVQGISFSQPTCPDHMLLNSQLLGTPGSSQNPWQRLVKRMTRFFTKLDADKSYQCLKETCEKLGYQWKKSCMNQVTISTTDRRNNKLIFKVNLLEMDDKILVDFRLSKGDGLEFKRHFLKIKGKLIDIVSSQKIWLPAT

[4] = molecular target: Ribosomal protein S6 kinase alpha-2 (Homo sapiens) (UniProt Q15349); experiment: Inhibition of human full length RSK3 expressed in baculovirus assessed as substrate phosphorylation using fluorescence-labelled peptides as substrate at 0.2 uM after 90 mins by microfluidic peptide phosphorylation assay
[5] = molecular target: T3, Serine/threonine-protein kinase DCLK2 (Homo sapiens) (UniProt Q8N568); experiment: Inhibition of human full length DCAMKL2 expressed in baculovirus assessed as substrate phosphorylation using fluorescence-labelled peptides as substrate at 1000 uM after 90 mins by microfluidic peptide phosphorylation assay
T3 sequence (whole entry): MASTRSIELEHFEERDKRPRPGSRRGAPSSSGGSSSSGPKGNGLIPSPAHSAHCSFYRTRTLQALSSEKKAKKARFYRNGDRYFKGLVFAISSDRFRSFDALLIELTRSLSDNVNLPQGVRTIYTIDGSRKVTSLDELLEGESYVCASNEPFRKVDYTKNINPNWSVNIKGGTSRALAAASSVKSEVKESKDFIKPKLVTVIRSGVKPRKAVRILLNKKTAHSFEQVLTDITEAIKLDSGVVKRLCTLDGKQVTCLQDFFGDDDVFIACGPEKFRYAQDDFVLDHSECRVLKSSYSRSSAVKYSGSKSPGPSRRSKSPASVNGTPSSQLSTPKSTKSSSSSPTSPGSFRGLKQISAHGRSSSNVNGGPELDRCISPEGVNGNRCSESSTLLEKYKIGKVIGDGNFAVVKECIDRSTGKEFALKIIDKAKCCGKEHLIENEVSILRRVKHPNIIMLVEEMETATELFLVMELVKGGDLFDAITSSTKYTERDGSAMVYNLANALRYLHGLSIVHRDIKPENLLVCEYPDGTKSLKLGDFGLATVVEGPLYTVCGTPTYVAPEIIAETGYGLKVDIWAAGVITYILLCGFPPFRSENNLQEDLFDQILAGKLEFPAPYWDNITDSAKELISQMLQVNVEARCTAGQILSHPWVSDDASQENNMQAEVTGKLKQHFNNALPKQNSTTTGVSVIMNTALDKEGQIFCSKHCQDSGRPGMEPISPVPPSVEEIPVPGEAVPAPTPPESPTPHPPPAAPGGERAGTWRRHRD

[6] = test system: Fibroblast growth factor receptor 2 (Homo sapiens), P21802 [N549H]; experiment: Inhibition of human FGFR2 N549H mutant catalytic domain expressed in baculovirus assessed as substrate phosphorylation using fluorescence-labelled peptides as substrate at 1000 uM after 90 mins by microfluidic peptide phosphorylation assay
[7] = molecular target: Fibroblast growth factor receptor 1 (Homo sapiens) (UniProt P11362); experiment: Inhibition of human FGFR1 catalytic domain expressed in baculovirus assessed as substrate phosphorylation using fluorescence-labelled peptides as substrate at 1000 uM after 90 mins by microfluidic peptide phosphorylation assay
[8] = molecular target: Platelet-derived growth factor receptor alpha (Homo sapiens) (UniProt P16234); experiment: Inhibition of human PDGFR alpha catalytic domain expressed in baculovirus assessed as substrate phosphorylation using fluorescence-labelled peptides as substrate at 1000 uM after 90 mins by microfluidic peptide phosphorylation assay
[9] = molecular target: Receptor-type tyrosine-protein kinase FLT3 (Homo sapiens) (UniProt P36888); experiment: Inhibition of human FLT3 catalytic domain expressed in baculovirus assessed as substrate phosphorylation using fluorescence-labelled peptides as substrate at […] after 90 mins by microfluidic peptide phosphorylation assay
[10] = molecular target: Calcium/calmodulin-dependent protein kinase type II subunit delta (Homo sapiens) (UniProt Q13557); experiment: Inhibition of human full length CAMK2D expressed in baculovirus assessed as substrate phosphorylation using fluorescence-labelled peptides as substrate at 8 uM after 90 mins by microfluidic peptide phosphorylation assay
[11] = molecular target: Tyrosine-protein kinase Lck (Homo sapiens) (UniProt P06239); conditions: 0.1 uM
Description: Inhibition of human full length LCK expressed in baculovirus assessed as substrate phosphorylation using fluorescence-labelled peptides as substrate at 0.1 uM after 90 mins by microfluidic peptide phosphorylation assay

[12] = molecular target: Tyrosine-protein kinase HCK (Homo sapiens) (UniProt P08631); experiment: Inhibition of human HCK catalytic domain expressed in baculovirus assessed as substrate phosphorylation using fluorescence-labelled peptides as substrate at 0.1 uM after 90 mins by microfluidic peptide phosphorylation assay
Tyrosine-protein kinase HCK (Homo sapiens), sequence (P08631 2-526 limits assumed): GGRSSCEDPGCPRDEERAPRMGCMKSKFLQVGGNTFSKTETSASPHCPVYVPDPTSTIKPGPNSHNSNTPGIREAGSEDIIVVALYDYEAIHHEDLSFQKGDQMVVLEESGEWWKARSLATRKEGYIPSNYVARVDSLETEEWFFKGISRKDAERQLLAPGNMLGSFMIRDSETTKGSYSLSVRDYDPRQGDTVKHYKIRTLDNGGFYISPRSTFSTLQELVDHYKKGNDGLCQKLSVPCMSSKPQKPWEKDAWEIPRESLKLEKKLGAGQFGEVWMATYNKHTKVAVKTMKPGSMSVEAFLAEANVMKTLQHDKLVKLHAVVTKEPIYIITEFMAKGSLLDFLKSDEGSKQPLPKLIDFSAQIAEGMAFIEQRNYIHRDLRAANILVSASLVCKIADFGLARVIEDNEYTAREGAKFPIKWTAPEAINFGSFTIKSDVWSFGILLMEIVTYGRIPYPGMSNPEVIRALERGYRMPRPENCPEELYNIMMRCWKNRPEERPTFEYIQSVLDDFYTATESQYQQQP

Tyrosine-protein kinase ABL1 (Homo sapiens), sequence (P00519 whole entry): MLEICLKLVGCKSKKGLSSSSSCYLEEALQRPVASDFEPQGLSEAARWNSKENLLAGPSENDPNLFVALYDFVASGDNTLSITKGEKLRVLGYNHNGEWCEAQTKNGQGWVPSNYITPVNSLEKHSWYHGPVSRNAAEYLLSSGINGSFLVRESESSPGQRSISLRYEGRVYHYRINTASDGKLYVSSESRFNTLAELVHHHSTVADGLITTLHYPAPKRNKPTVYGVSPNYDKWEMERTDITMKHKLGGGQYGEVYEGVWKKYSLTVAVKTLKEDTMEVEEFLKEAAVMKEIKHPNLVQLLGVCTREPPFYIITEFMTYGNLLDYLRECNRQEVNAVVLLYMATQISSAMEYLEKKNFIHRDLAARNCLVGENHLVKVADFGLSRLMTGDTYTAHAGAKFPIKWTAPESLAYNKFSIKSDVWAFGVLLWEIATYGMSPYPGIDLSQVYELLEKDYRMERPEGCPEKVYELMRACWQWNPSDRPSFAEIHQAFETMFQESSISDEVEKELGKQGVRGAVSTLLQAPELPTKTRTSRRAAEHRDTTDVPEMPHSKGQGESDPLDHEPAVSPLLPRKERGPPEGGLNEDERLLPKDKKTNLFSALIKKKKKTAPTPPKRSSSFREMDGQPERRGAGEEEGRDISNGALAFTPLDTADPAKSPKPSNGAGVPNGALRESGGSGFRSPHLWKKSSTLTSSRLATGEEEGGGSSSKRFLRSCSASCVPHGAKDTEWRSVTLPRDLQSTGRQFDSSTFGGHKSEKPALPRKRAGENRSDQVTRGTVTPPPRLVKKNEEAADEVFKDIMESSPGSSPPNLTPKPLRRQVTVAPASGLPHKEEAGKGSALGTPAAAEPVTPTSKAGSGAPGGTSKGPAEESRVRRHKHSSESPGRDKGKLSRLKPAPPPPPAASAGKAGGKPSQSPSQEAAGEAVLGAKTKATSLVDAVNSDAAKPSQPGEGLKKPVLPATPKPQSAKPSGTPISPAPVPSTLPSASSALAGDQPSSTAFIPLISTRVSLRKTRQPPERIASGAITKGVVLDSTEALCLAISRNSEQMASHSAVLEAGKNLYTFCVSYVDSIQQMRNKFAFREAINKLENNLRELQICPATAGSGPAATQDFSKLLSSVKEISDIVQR
Tyrosine-protein kinase Lck (Homo sapiens), sequence (P06239 2-509 limits assumed): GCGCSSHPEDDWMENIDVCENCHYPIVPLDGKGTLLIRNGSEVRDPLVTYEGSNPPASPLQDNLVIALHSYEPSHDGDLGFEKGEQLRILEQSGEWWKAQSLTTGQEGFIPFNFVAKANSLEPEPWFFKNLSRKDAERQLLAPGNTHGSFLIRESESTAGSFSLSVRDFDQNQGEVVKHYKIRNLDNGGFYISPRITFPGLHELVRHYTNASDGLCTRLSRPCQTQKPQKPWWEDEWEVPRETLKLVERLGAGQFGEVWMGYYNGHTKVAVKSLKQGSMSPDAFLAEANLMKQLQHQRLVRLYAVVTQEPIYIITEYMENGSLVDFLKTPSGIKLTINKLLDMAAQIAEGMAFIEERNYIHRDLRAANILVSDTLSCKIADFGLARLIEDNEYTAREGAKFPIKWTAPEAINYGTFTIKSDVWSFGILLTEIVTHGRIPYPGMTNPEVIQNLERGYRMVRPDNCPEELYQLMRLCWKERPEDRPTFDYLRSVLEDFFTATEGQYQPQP
Platelet-derived growth factor receptor alpha (Homo sapiens), sequence (P16234 whole entry, the tested form may be a part): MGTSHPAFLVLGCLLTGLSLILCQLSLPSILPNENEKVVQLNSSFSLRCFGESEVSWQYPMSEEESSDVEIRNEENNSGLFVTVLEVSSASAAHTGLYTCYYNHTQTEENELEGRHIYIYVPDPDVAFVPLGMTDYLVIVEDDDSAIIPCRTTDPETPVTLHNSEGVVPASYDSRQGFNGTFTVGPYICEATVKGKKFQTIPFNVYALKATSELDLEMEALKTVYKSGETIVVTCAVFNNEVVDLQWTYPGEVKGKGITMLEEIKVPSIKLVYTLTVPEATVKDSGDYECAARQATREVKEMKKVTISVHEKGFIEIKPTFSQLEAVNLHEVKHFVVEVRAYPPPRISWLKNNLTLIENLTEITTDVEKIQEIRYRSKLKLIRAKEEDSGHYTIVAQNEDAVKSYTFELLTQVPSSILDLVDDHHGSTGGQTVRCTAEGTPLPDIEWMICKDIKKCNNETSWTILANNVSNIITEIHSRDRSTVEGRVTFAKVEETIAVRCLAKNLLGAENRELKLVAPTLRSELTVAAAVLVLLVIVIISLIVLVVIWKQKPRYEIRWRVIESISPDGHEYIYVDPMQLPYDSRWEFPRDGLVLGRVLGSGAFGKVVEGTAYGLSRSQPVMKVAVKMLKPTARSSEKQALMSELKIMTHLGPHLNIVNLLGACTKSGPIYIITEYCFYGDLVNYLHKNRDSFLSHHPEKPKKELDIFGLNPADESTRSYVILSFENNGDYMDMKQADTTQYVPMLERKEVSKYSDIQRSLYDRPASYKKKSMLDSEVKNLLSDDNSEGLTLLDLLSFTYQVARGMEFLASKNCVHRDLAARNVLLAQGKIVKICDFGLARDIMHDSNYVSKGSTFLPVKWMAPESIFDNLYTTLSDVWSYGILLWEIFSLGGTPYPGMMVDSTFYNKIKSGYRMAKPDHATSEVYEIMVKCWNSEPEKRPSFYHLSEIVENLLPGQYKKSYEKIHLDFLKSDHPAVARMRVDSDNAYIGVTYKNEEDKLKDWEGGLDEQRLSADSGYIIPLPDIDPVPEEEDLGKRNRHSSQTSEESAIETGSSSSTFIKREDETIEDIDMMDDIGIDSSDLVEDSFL
Fibroblast growth factor receptor 2 (Homo sapiens), P21802 [N549H], sequence (P21802 whole entry N549H, the tested form may be a part): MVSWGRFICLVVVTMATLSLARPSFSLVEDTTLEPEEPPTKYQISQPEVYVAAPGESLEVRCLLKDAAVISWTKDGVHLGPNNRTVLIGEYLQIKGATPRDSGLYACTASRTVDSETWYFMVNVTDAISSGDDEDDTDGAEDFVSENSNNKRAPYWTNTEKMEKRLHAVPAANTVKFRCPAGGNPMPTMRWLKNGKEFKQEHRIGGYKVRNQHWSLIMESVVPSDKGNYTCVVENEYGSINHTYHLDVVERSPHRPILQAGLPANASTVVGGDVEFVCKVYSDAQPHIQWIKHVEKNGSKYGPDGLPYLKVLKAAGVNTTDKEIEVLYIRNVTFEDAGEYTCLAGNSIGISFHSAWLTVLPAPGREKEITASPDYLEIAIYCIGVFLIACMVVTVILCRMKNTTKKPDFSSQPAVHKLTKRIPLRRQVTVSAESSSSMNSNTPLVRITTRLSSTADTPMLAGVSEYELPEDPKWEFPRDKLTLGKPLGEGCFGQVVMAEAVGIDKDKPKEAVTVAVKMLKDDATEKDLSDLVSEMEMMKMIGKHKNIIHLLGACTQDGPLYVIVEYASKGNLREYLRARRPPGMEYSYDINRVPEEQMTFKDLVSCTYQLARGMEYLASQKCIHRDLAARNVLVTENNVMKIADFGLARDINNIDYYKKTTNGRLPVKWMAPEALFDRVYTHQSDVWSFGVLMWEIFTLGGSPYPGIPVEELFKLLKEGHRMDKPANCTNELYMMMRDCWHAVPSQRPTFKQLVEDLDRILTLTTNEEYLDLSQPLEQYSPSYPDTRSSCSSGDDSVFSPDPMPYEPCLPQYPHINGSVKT
Fibroblast growth factor receptor 1 (Homo sapiens), sequence (P11362 22-822 limits assumed): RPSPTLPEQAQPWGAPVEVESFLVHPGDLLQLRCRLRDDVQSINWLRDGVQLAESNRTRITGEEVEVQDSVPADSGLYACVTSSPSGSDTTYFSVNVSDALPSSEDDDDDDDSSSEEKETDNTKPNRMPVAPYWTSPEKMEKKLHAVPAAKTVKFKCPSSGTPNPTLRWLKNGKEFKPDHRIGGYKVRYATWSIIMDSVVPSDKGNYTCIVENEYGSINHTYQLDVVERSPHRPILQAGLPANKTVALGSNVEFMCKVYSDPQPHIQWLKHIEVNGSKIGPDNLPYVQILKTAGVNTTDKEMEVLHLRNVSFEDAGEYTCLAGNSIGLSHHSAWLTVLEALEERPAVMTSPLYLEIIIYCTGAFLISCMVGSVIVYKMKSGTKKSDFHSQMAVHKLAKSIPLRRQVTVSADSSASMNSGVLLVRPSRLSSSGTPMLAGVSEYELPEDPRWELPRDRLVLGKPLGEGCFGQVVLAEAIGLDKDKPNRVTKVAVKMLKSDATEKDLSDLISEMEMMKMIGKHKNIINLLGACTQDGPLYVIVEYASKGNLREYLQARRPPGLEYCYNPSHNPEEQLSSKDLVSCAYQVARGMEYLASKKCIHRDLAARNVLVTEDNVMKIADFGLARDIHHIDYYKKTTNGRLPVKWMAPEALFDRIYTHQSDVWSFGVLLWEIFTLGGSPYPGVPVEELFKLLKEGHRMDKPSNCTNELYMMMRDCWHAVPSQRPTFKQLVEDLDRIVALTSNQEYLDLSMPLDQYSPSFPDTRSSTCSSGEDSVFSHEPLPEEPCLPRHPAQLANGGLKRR

NC1(Cc2ccc(Cl)cc2)CCN(c2ncnc3[nH]ccc23)CC1
inhibition [1]: 0% | inhibition [2]: 13%

CNCc1ccc(-c2ncnc3[nH]cnc23)cc1
inhibition [3]: 72%

Clc1ccc(C2(c3ccc(-c4ncnc5[nH]cnc45)cc3)CCNCC2)cc1
inhibition [4]: 40%

c1cnc2[nH]ccc2c1
inhibition [5]: 15% | inhibition [6]: 42% | inhibition [7]: 64.5% | inhibition [8]: 31.5%

COC(=O)c1cnc(Nc2cnc(C#N)cn2)cc1NCC1CCNCC1
inhibition [9]: 21%

NCC1CCN(c2ncnc3[nH]ccc23)CC1
inhibition [10]: 25%

C[C@H](CN(C)C)Oc1nc(Nc2cc3cccc(Cl)c3cn2)cnc1C#N
inhibition [11]: 0% | inhibition [12]: 4%
